For data set [1], the target named is T1, Kinesin-like protein KIF23 (Homo sapiens) (UniProt Q02241).
T1 sequence (whole entry): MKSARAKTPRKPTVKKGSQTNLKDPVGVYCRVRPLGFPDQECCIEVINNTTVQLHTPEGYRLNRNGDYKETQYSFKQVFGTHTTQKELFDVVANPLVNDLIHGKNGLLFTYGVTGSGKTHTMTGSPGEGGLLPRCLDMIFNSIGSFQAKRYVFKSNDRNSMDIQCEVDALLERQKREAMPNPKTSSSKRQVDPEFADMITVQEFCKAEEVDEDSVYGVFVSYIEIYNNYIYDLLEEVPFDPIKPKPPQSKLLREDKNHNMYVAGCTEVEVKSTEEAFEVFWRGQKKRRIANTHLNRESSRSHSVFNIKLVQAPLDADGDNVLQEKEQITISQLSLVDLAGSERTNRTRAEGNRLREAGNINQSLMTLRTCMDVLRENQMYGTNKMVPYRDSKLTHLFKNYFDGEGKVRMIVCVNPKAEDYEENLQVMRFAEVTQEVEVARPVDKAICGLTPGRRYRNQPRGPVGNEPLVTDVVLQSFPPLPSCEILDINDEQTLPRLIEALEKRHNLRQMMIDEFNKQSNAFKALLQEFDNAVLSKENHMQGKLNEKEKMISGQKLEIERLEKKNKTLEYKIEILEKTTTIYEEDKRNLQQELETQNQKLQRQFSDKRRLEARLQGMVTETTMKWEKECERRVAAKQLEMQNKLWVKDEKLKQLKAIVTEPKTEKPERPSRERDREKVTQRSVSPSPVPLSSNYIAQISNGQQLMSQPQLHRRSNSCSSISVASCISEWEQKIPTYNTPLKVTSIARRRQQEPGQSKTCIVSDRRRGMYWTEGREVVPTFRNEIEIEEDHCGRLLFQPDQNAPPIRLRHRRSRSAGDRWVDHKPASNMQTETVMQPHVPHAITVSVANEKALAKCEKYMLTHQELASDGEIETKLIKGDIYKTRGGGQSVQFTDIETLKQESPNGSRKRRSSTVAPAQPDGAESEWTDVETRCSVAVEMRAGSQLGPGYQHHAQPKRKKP
Nature of the data set: Inhibition of microtubule-stimulated MKLP1 motor domain (1 to 446) (unknown origin) ATPase activity at 6.3 uM.

Data set [2] concerns the target T2, Kinesin-like protein KIF11 (Homo sapiens) (UniProt P52732).
T2 sequence (whole entry): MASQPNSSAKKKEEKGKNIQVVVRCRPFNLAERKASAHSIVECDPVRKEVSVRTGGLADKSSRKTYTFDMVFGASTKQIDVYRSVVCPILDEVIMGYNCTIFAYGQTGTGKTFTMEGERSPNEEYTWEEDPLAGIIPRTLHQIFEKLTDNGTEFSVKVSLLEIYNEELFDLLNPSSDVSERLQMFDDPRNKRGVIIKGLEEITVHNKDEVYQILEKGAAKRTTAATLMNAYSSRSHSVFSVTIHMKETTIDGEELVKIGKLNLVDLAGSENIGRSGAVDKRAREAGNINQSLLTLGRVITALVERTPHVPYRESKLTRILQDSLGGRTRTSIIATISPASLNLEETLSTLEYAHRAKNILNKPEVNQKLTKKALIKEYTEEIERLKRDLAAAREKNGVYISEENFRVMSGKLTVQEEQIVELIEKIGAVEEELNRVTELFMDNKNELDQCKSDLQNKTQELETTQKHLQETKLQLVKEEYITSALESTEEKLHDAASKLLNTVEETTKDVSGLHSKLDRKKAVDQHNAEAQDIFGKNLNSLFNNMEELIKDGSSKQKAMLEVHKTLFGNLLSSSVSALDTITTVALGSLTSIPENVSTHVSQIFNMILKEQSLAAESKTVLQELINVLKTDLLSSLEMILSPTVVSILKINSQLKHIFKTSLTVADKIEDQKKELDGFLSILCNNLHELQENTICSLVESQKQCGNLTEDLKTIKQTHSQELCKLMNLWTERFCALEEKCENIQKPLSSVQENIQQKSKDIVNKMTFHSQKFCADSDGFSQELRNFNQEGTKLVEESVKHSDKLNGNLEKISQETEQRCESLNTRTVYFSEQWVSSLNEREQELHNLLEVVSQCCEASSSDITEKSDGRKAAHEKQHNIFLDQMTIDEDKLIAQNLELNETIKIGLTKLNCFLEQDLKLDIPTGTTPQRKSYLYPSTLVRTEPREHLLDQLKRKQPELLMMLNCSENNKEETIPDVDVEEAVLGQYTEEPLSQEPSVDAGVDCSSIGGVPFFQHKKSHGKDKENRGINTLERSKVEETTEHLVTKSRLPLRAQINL
Description: Binding affinity to KSP motor domain (unknown origin) assessed as change in melting temperature at 100 uM by differential scanning fluorimetry in presence of 1 mM ATP

The subject of data set [3] is HeLa. Nature of the data set: Cell cycle arrest at mitotic phase in human HeLa cells assessed as formation of monopolar spindles at 40 nM after 6 hrs by DAPI staining-based microscopic analysis. Type of data set: functional.
Data set [4] deals with HCT-116. Nature of the data set: Antitumor activity against human HCT116 cells xenografted in athymic nude BALB/cAJcL mouse assessed as inhibition of tumor growth at 75 mg/kg, iv administered on days 1,3,5,8,10 and 12 measured on day 15. Format: functional. (Xenograft models place foreign cells or tissue in a host animal.)
The subject of data set [5] is HeLa. Nature of the data set: Cell cycle arrest at mitotic phase in human HeLa cells assessed as mitotic index after 6 hrs. Type of data set: functional.
For the next data set, the system named is Mus musculus. Nature of the data set: Toxicity in athymic nude BALB/cAJcL mouse xenografted with HCT116 cells assessed as mortality at 75 mg/kg, iv administered on days 1,3,5,8,10 and 12. Type of data set: organism-based, HCT-116. As to conditions: in vivo.
In data set [6] the test system is HCT-116. Nature of the data set: Antitumor activity against human HCT116 cells xenografted in iv dosed athymic nude BALB/cAJcL mouse assessed as inhibition of tumor growth drug administered on days 1,3,5,8,10 and 12 measured on day 15. Type of data set: functional, organism-based.

Active and inactive are the calls of the source. No cut-off for these calls is given here.

For the compound `COc1ccc(C2(SC[C@H](N)C(=O)O)c3ccccc3CCc3ccccc32)cc1`, the inhibition entry in data set [1] was “inactive”. Also, the ΔTm in data set [2] was 12 °C.
In the case of `N[C@@H](CSC1(c2ccc(C(F)(F)F)cc2)c2ccccc2CCc2ccccc21)C(=O)O`, in the data set on HeLa [3], the outcome was Active. The T/C in the data set on HCT-116 [4] was found to be 9%. Further, the inhibition entry in data set [1] was “inactive”. The MI50 with HeLa [5] was 14 nM. The Activity result in the data set on Mus musculus is on record as “Non-toxic”. The TGI result in the data set on HCT-116 [6] was “Dose-dependent effect”.

For orientation: ΔTm means the shift of the melting midpoint relative to a reference. For orientation: T/C means the ratio of treated to control.

For the origin of these results see ChEMBL document CHEMBL3632570, “Structure-Guided Design of Novel l-Cysteine Derivatives as Potent KSP Inhibitors” (ACS Med Chem Lett, 2015).
